In patent US11484479B2, “Formulation for the elimination of cariogenic and opportunistic pathogens within the oral cavity” (Research Institute at Nationwide Children's Hospital, priority 2015, dated 2022):

Legend:
S. gordonii = test: Toxic cargo DM assay; assay type: cell-based, Streptococcus gordonii; conditions: monoculture, 1 min; CHX 0.033% and H2O2 0.25% final concentration, no DM (FIG. 8A left)
Description: (§1) DM was hydrated in THB only (control) or THB containing either hydrogen peroxide (1.5%) or chlorhexidine (0.2%) to create a 10% (w/v) slurry. For Applicant's DM assays, 250 μl of hydrated DM G25 superfine (125 μl final volume; 12.5 mg) was added to a Micro Bio-Spin chromatography column (BioRad, Hercules, Calif.) and excess liquid was removed by centrifugation at 100×g for 30 seconds, leaving DM with toxic cargo in the lumen. 125 μl of THB (the same volume of excess toxic cargo removed by filtration) was added to the DM column to create a 10% slurry (w/v), followed by the immediate addition of 500 μl of culture as described above for Applicant's basic DM assay. For control assays containing no DM, 125 μl of THB or THB containing toxic cargo (the same volume that is present in the DM lumen) was added to the spin column containing 125 THB followed by the addition of 500 μl of culture as described above for Applicant's basic DM assay. After incubation for 1 minute at RT, the cell/DM mixture was centrifuged for 1 minute at 100×g. The flow-through was serial diluted in PBS, and serial dilutions were plated onto THB (S. gordonii) or THB containing 1.5 μg/ml erythromycin (S. mutans) or LB (E. coli) agar and incubated at 37° C.+5% CO2. […]

S. mutans = test: Toxic cargo DM assay; assay type: cell-based, Streptococcus mutans; conditions: monoculture, 1 min; CHX 0.033% and H2O2 0.25% final concentration, no DM (FIG. 8A left)
Description: as §1

Row | SMILES | Total viable S. gordonii after antimicrobial alone (no DM) (S. gordonii) | Total viable S. mutans after antimicrobial alone (no DM) (S. mutans)
1 | [H]/N=C(\N/C(=N/[H])NCCCCCCNC(=N)NC(=N)Nc1ccc(Cl)cc1)Nc1ccc(Cl)cc1 [CHX, chlorhexidine] | decreased the amount of total viable S. mutans and S. gordonii | decreased the amount of total viable S. mutans and S. gordonii
2 | OO [H2O2, hydrogen peroxide] | decreased the amount of total viable S. mutans and S. gordonii | decreased the amount of total viable S. mutans and S. gordonii
